Tested on: GNS166 cells
Test: Microarray whole-transcriptome gene expression analysis
Type: cell-based, human
Conditions: 5 µM SAHA vs DMSO
Experimental: Whole-transcriptome analysis was performed from 300 ng of RNA using HuGene-2_0-st-v1 expression array (Affymetrix), which covers 48,226 transcripts. Raw data were first checked for quality purposes through the Affymetrix® Expression Console™ Software v1.4.1 and TAC software v4.0. Then, data were normalized using the Robust Multi-array Average (RMA) and analyzed by Limma tool. Probesets with FDR-corrected p-values smaller than 0.05 were selected. Functional enrichment on Gene Ontology (GO) biological processes was performed on a smaller subset of the differentially expressed genes (corrected p-value < 0.001) by means of Broad Institute GSEA. […] The data that support this study have been deposited in NCBI´s Gene Expression Omnibus and are accessible through GEO series accession number GSE143887.

O=C(CCCCCCC(=O)Nc1ccccc1)NO [SAHA, Suberoylanilide hydroxamic acid]
logFC, unannotated transcript (transcript 23067838): 2.48 | logFC, unannotated transcript (transcript 23070274): 1.496 | logFC, unannotated transcript (transcript 23074046): 2.262 | logFC, unannotated transcript (transcript 23076255): 1.316 | logFC, unannotated transcript (transcript 23076621): 1.363 | logFC CLCN4 (transcript TC0X00006593.hg.1): 1.5774 | logFC GRPR (transcript TC0X00006686.hg.1): 2.105 | logFC CNKSR2 (transcript TC0X00006758.hg.1): 1.439 | logFC TCEAL2 (transcript TC0X00007965.hg.1): 1.805 | logFC CXorf57 (transcript TC0X00008052.hg.1): 2.567 | logFC RNF128 (transcript TC0X00008054.hg.1): 2.588 | logFC TBC1D8B (transcript TC0X00008055.hg.1): 1.963 | logFC BCORL1 (transcript TC0X00008394.hg.1): 1.89 | logFC SPANXB1 (transcript TC0X00008599.hg.1): 3.183 | logFC SPANXA2 (transcript TC0X00008608.hg.1): 1.528 | logFC GABRQ (transcript TC0X00008747.hg.1): 2.318 | logFC SPRY3 (transcript TC0X00008881.hg.1): 1.925 | logFC ANOS1 (transcript TC0X00009025.hg.1): 2.202 | logFC TMEM47 (transcript TC0X00009356.hg.1): 2.2 | logFC SYN1 (transcript TC0X00009576.hg.1): 1.838 | logFC SLC7A3 (transcript TC0X00009972.hg.1): 2.306 | logFC PCDH19 (transcript TC0X00010326.hg.1): 2.715 | logFC GPC3 (transcript TC0X00010851.hg.1): 3.405 | logFC SPANXC (transcript TC0X00010990.hg.1): 2.79 | logFC TSPAN7 (transcript TC0X00011279.hg.1): 3.632 | logFC SPANXD (transcript TC0X00011403.hg.1): 2.719 | logFC SPRY3 (transcript TC0Y00006855.hg.1): 1.925 | logFC AZIN2 (transcript TC0100007705.hg.1): 2.1884 | logFC SGIP1 (transcript TC0100008631.hg.1): 2.667 | logFC WDR63 (transcript TC0100008897.hg.1): 2.0565 | logFC PLPPR4 (transcript TC0100009181.hg.1): 3.131 | logFC RIIAD1 (transcript TC0100009969.hg.1): 1.761 | logFC RGS4 (transcript TC0100010393.hg.1): 2.615 | logFC RGL1 (transcript TC0100010874.hg.1): 1.6746 | logFC HMCN1 (transcript TC0100010921.hg.1): 2.357 | logFC PLA2G4A (transcript TC0100010939.hg.1): 2.146 | logFC NFASC (transcript TC0100011316.hg.1): 2.226 | logFC SYT14 (transcript TC0100011463.hg.1): 1.552 | logFC PADI2 (transcript TC0100013076.hg.1): 2.104 | logFC RAB3B (transcript TC0100014191.hg.1): 2.825 | logFC EXTL2 (transcript TC0100015079.hg.1): 1.8773 | logFC TXNIP (transcript TC0100015598.hg.1): 1.6929 | logFC TDRKH (transcript TC0100015803.hg.1): 1.45 | logFC CRABP2 (transcript TC0100016018.hg.1): 2.073 | logFC TNFSF18 (transcript TC0100016427.hg.1): 2.171 | logFC NMNAT2 (transcript TC0100016649.hg.1): 2.678 | logFC KCNT2 (transcript TC0100016822.hg.1): 1.691 | logFC SUSD4 (transcript TC0100017446.hg.1): 2.012 | logFC CHML (transcript TC0100017948.hg.1): 2.064 | logFC EFNA3 (transcript TC0100018303.hg.1): 2.427 | logFC CREG1 (transcript TC0100018528.hg.1): 1.58 | logFC ATP6V1C2 (transcript TC0200006703.hg.1): 1.305 | logFC DPYSL5 (transcript TC0200007047.hg.1): 2.839 | logFC CHAC2 (transcript TC0200007590.hg.1): 1.314 | logFC MERTK (transcript TC0200008894.hg.1): 2.244 | logFC B3GALT1 (transcript TC0200009889.hg.1): 2.683 | logFC FAM171B (transcript TC0200010219.hg.1): 2.2716 | logFC MAP2 (transcript TC0200010636.hg.1): 3.414 | logFC BCL11A (transcript TC0200012713.hg.1): 2.328 | logFC PAIP2B (transcript TC0200013021.hg.1): 1.841 | logFC KCNH7 (transcript TC0200014775.hg.1): 2.8124 | logFC SCN9A (transcript TC0200014819.hg.1): 2.356 | logFC LRP2 (transcript TC0200014851.hg.1): 2.542 | logFC FKBP7 (transcript TC0200015082.hg.1): 2.583 | logFC CALCRL (transcript TC0200015193.hg.1): 2.705 | logFC SLC40A1 (transcript TC0200015211.hg.1): 1.178 | logFC MSTN (transcript TC0200015221.hg.1): 1.434 | logFC STAT4 (transcript TC0200015246.hg.1): 1.771 | logFC EPHA4 (transcript TC0200015815.hg.1): 1.855 | logFC ITPR1 (transcript TC0300006477.hg.1): 1.259 | logFC GRAMD1C (transcript TC0300008371.hg.1): 3.533 | logFC STXBP5L (transcript TC0300008524.hg.1): 1.686 | logFC TMEM108 (transcript TC0300008853.hg.1): 1.4353 | logFC PLS1 (transcript TC0300009033.hg.1): 1.34 | logFC MLF1 (transcript TC0300009310.hg.1): 1.587 | logFC SERPINI1 (transcript TC0300009412.hg.1): 3.206 | logFC GPR160 (transcript TC0300009459.hg.1): 1.716 | logFC VGLL3 (transcript TC0300011706.hg.1): 1.982 | logFC IGSF11 (transcript TC0300012109.hg.1): 2.1969 | logFC SLITRK3 (transcript TC0300013022.hg.1): 1.701 | logFC LAMP3 (transcript TC0300013336.hg.1): 2.279 | logFC CLDN1 (transcript TC0300013520.hg.1): 1.599 | logFC CEP19 (transcript TC0300013719.hg.1): 1.62 | logFC IFT80 (transcript TC0300014074.hg.1): 1.3192 | logFC CCDC39 (transcript TC0300014078.hg.1): 2.854 | logFC WDR19 (transcript TC0400007280.hg.1): 1.361 | logFC GABRB1 (transcript TC0400007419.hg.1): 2.377 | logFC CYP2U1 (transcript TC0400008347.hg.1): 1.641

From publication PMC7265429, “Characterization of a new small-molecule inhibitor of HDAC6 in glioblastoma” (Cell Death & Disease, 2020)
